In patent US8853213B2, “Bicyclic compound for modulating G protein-coupled receptors” (Hanmi Pharm. Co., Ltd, priority 2011, dated 2014):

Target: T1, GPR119 (Homo sapiens, UniProt Q8TDV5)
T1 construct: host or cells: CHO-K1 (CRE-bla reporter, doxycycline-induced)
T1 sequence (Q8TDV5 1-335): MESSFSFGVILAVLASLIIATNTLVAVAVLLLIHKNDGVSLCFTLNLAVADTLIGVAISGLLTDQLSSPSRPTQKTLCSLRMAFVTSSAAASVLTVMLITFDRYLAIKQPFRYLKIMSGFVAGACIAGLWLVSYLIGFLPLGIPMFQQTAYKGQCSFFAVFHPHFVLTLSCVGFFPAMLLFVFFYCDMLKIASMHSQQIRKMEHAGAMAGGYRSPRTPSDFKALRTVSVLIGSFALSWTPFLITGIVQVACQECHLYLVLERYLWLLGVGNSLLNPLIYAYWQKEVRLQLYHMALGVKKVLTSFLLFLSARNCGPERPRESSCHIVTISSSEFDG
Test: Controlling Effect of GPR119 in CRE-bla CHO-K1 Cells (EC50)
Assay type: cell-based
Conditions: GPR119 CRE-bla CHO-K1 cell line, 5 hr incubation with compound, β-lactamase LiveBLAzer-FRET B/G readout; read-out: controlling effect against GPR119 in CRE-bla CHO-K1 cell line (EC50)
Protocol: Controlling Effect of GPR119 in CRE-bla CHO-K1 Cells (EC50)
The day before the experiment, GPR119 CRE-bla CHO-K1 cell line purchased from Invitrogen was seeded in a 96 black well plate in an amount of 80 μl at a density of 5×10^4 cells. After the seeding, 10 μl of doxycycline in a concentration of 1 μg/ml was added to each well and incubated in an incubator at 37° C. under 5% CO2 for about 16 to 20 hr.
The day of experiment, sample compounds were performed a 10-fold serial dilution with a culture medium at various concentrations of 1 uM to […]. Considering that the culture medium used in the seeding and doxycycline are together applied, the sample compounds were diluted to a 5-fold dilution of the planned concentration. 20 μl of the compound diluted with the culture medium was added to each well and incubated in the incubator for 5 hr. The compound-untreated group was added with 20 μl of 0.5% dimethyl sulfoxide (DMSO) diluted with the culture medium. After 5 hr from the incubation, substrate mixture of a 6-fold concentration were prepared; 6 μl of 1 mM LiveBLAzer™-FRET B/G(CCF4-AM) substrate, 60 μl of solution B, 904 μl of solution C and 30 μl of solution D. 12 μl of the substrate mixture was added to each well and allowed to be kept at room temperature for 2 hr with shading the light. Fluorescence intensity value of blue channel and green channel was determined by a fluorescence microplate reader at 409 nm/460 nm and 409 nm/[…] (excitation/emission), respectively. In order to confirm the controlling effect of the inventive compounds against GPR119, EC50 (half maximal effective concentration) was determined based on the determined values. EC50, the concentration at which 50% activity of β-lactamase, was determined according to the following Equation: Equation=[(Ti−Tz)/(C−Tz)]×100
[Wherein, Ti: Cell density of the compound-treated group; Tz: Cell density of the negative control group; and C: Cell density of the positive control group]

EC50 | SMILES
< 100 nM | CS(=O)(=O)c1ccc(-c2csc3c(OC4CCN(c5ncc(C6CC6)cn5)CC4)ncnc23)cc1 [Example 56, 4-[1-(5-cyclopropyl-pyrimidin-2-yl)-piperidin-4-yloxy]-7-(4-methanesulfonyl-phenyl)-thieno[3,2-d]pyrimidine]
< 100 nM | CCc1cnc(N2CCC(Oc3ncnc4c(-c5ccc(S(C)(=O)=O)cc5)csc34)C2)nc1 (stereo not shown) [Example 57, 4-[1-(5-ethylpyrimidin-2-yl)-pyrrolidin-3-yloxy]-7-(4-methanesulfonyl-phenyl)-thieno[3,2-d]pyrimidine]
100 to 1000 nM | CC(C)c1noc(N2CCC(Oc3ncnc4c(-c5ccc(S(C)(=O)=O)cc5)csc34)C2)n1 (stereo not shown) [Example 58, 4-[1-(3-isopropyl-[1,2,4]oxadiazol-5-yl)-pyrrolidin-3-yloxy]-7-(4-methanesulfonyl-phenyl)-thieno[3,2-d]pyrimidine]
> 1000 nM | CS(=O)(=O)c1ccc(-c2csc3c(OC4CCN(c5nccc(C(F)(F)F)n5)CC4)ncnc23)cc1 [Example 59]
< 100 nM | CC(C)c1noc(N2CCC(Oc3ncnc4c(-c5ccc(S(C)(=O)=O)cc5F)csc34)CC2)n1 [Example 60, 7-(2-fluoro-4-methanesulfonyl-phenyl)-4-[1-(3-isopropyl-[1,2,4]oxadiazol-5-yl)piperidin-4-yloxy]thieno[3,2-d]pyrimidine]
< 100 nM | CCc1noc(N2CCC(Oc3ncnc4c(-c5ccc(S(C)(=O)=O)cc5F)csc34)CC2)n1 [Example 61, 3-ethyl-5-(4-(7-(2-fluoro-4-methanesulfonyl-phenyl)thieno[3,2-d]pyrimidin-4-yloxy)piperidin-1-yl)-1,2,4-oxadiazole]
< 100 nM | CCC(C)c1noc(N2CCC(Oc3ncnc4c(-c5ccc(S(C)(=O)=O)cc5F)csc34)CC2)n1 (stereo not shown) [Example 62, 3-sec-butyl-5-(4-(7-(2-fluoro-4-methanesulfonyl-phenyl)thieno[3,2-d]pyrimidin-4-yloxy)piperidin-1-yl)-1,2,4-oxadiazole]
< 100 nM | CS(=O)(=O)c1ccc(-c2csc3c(OC4CCN(c5nc(C6CC6)no5)CC4)ncnc23)c(F)c1 [Example 63, 7-(2-fluoro-4-methanesulfonyl-phenyl)-4-[1-(3-cyclopropyl-[1,2,4]oxadiazol-5-yl)piperidin-4-yloxy]thieno[3,2]pyrimidine]
< 100 nM | CS(=O)(=O)c1ccc(-c2csc3c(OC4CCN(c5nc(-c6ccccc6)no5)CC4)ncnc23)c(F)c1 [Example 64, 5-(4-(7-(2-fluoro-4-methanesulfonyl-phenyl)thieno[3,2-d]pyrimidin-4-yloxy)piperidin-1-yl)-3-phenyl-1,2,4-oxadiazole]
< 100 nM | CS(=O)(=O)c1ccc(-c2csc3c(OC4CCN(c5nc(-c6ccc(F)cc6)no5)CC4)ncnc23)c(F)c1 [Example 65, 5-(4-(7-(2-fluoro-4-methanesulfonyl-phenyl)thieno[3,2-d]pyrimidin-4-yloxy)piperidin-1-yl)-3-(4-fluorophenyl)-1,2,4-oxadiazole]
< 100 nM | CS(=O)(=O)c1ccc(-c2csc3c(OC4CCN(c5nc(-c6ccncc6)no5)CC4)ncnc23)c(F)c1 [Example 66, 5-(4-(7-(2-fluoro-4-methanesulfonyl-phenyl)thieno[3,2-d]pyrimidin-4-yloxy)piperidin-1-yl)-3-(pyridin-4-yl)-1,2,4-oxadiazole]
< 100 nM | CS(=O)(=O)c1ccc(-c2csc3c(OC4CCN(c5nc(-c6cccnc6)no5)CC4)ncnc23)c(F)c1 [Example 67, 5-(4-(7-(2-fluoro-4-methanesulfonyl-phenyl)thieno[3,2-d]pyrimidin-4-yloxy)piperidin-1-yl)-3-(pyridin-3-yl)-1,2,4-oxadiazole]
100 to 1000 nM | CS(=O)(=O)c1ccc(-c2csc3c(OC4CCN(c5nc(-c6cnccn6)no5)CC4)ncnc23)c(F)c1 [Example 68, 5-(4-(7-(2-fluoro-4-methanesulfonyl-phenyl)thieno[3,2-d]pyrimidin-4-yloxy)piperidin-1-yl)-3-(pyrazin-2-yl)-1,2,4-oxadiazole]
